Laboratory results from patent US9226916B2, “Pyrrolidine derivatives” (HOFFMANN-LA ROCHE INC., priority 2009, dated 2016).

Biological target: T1, recombinant human NK3 receptor (Homo sapiens, UniProt P29371)
T1 construct: expressed in transfected cells; host or cells: HEK293 cells, transient expression; membranes
T1 sequence (P29371 1-465): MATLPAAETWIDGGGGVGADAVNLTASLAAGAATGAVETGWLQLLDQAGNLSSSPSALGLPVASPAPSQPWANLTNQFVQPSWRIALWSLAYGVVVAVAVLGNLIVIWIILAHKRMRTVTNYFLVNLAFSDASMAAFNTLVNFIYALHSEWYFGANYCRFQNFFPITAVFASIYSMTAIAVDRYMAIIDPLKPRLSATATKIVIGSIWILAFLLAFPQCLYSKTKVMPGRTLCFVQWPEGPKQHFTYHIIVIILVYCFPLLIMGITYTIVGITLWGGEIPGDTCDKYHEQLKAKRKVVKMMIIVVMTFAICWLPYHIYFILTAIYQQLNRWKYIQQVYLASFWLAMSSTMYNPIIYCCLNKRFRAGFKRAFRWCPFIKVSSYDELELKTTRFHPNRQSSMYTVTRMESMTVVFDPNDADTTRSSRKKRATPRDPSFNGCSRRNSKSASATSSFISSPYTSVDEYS
Assay: [3H]SR142801 competition binding assay
Settings: not given
In the case of `CN(C(=O)OCCCC(F)(F)C(F)(F)F)[C@H]1CN(C(=O)C2CCN(C(=O)C3(C)CC3)CC2)C[C@@H]1c1ccc(Cl)c(Cl)c1` (racemic) [Example 88, rac-{(3R,4S)-4-(3,4-Dichloro-phenyl)-1-[1-(1-methyl-cyclopropanecarbonyl)-piperidine-4-carbonyl]-pyrrolidin-3-yl}-methyl-carbamic acid 4,4,5,5,5-pentafluoro-pentyl ester], the Ki is reported as 8.3 nM. In the case of `CN(C(=O)Oc1ccc(F)cc1)[C@@H]1CN(C(=O)C2CCN(C(=O)C3CC(F)(F)C3)CC2)C[C@H]1c1ccc(Cl)c(Cl)c1` [Example 268, {(3S,4R)-4-(3,4-Dichloro-phenyl)-1-[1-(3,3-difluoro-cyclobutanecarbonyl)-piperidine-4-carbonyl]-pyrrolidin-3-yl}-methyl-carbamic acid 4-fluoro-phenyl ester], the Ki is reported as 0.6 nM. With `CN(C(=O)Oc1ccc(F)cc1)[C@@H]1CN(C(=O)C2CCN(c3ccc(C(F)(F)F)cn3)CC2)C[C@H]1c1ccc(F)c(Cl)c1` [Example 317, [(3S,4R)-4-(3-Chloro-4-fluoro-phenyl)-1-(5′-trifluoromethyl-3,4,5,6-tetrahydro-2H-[1,2′]bipyridinyl-4-carbonyl)-pyrrolidin-3-yl]-methyl-carbamic acid 4-fluoro-phenyl ester] the Ki was 1.6 nM. `CN(C(=O)Oc1ccc(F)cc1)[C@@H]1CN(C(=O)C2CCN(C(=O)CC#N)CC2)C[C@H]1c1ccc(Cl)c(Cl)c1` [Example 271, [(3S,4R)-1-[1-(2-Cyano-acetyl)-piperidine-4-carbonyl]-4-(3,4-dichloro-phenyl)-pyrrolidin-3-yl]-methyl-carbamic acid 4-fluoro-phenyl ester] showed a Ki of 0.1 nM. Work on `CN(C(=O)Oc1ccc(F)cc1)[C@@H]1CN(C(=O)[C@H]2CC[C@H](C#N)CC2)C[C@H]1c1ccc(Cl)cc1` [Example 104, [(3S,4R)-4-(4-Chloro-phenyl)-1-(4-cyano-cyclohexanecarbonyl)-pyrrolidin-3-yl]-methyl-carbamic acid 4-fluoro-phenyl ester] yielded a Ki of 7.4 nM. `CN(C(=O)Oc1ccc(F)cc1)[C@@H]1CN(C(=O)C2CCOCC2)C[C@H]1c1ccc(Cl)c(Cl)c1` [Example 51, [(3S,4R)-4-(3,4-Dichloro-phenyl)-1-(tetrahydro-pyran-4-carbonyl)-pyrrolidin-3-yl]-methyl-carbamic acid 4-fluoro-phenyl ester] showed a Ki of 1.8 nM. `CN(C(=O)Oc1ccc(C(F)(F)F)cc1)[C@@H]1CN(C(=O)C2CCN(c3ccc(C#N)cn3)CC2)C[C@H]1c1ccc(Cl)cc1` [Example 207, [(3S,4R)-4-(4-Chloro-phenyl)-1-(5′-cyano-3,4,5,6-tetrahydro-2H-[1,2′]bipyridinyl-4-carbonyl)-pyrrolidin-3-yl]-methyl-carbamic acid 4-trifluoromethyl-phenyl ester] gave a Ki of 0.6 nM. Work on `CN(C(=O)Oc1ccc(Cl)cn1)[C@@H]1CN(C(=O)C2CCN(c3ccc(C#N)cn3)CC2)C[C@H]1c1ccc(Cl)cc1` [Example 244, [(3S,4R)-4-(4-Chloro-phenyl)-1-(5′-cyano-3,4,5,6-tetrahydro-2H-[1,2′]bipyridinyl-4-carbonyl)-pyrrolidin-3-yl]-methyl-carbamic acid 5-chloro-pyridin-2-yl ester] yielded a Ki of 20.9 nM. In the case of `CN(C(=O)Oc1ccc(C#N)cc1)[C@@H]1CN(C(=O)C2CCN(c3ccc(C#N)cn3)CC2)C[C@H]1c1ccc(Cl)cc1` [Example 228, [(3S,4R)-4-(4-Chloro-phenyl)-1-(5′-cyano-3,4,5,6-tetrahydro-2H-[1,2′]bipyridinyl-4-carbonyl)-pyrrolidin-3-yl]-methyl-carbamic acid 4-cyano-phenyl ester], the Ki is reported as 0.8 nM. For `CN(C(=O)Oc1ccc(F)cc1)[C@@H]1CN(C(=O)C2CCN(C3CCOCC3)C2)C[C@H]1c1ccc(Cl)cc1` (stereo partly drawn) [Example 179, {(3S,4R)-4-(4-Chloro-phenyl)-1-[1-(tetrahydro-pyran-4-yl)-pyrrolidine-3-carbonyl]-pyrrolidin-3-yl}-methyl-carbamic acid 4-fluoro-phenyl ester], the Ki was 56.6 nM. Molecule `CN(C(=O)Oc1ccc(F)cc1)[C@@H]1CN(C(=O)C2CCN(c3ccc(S(C)(=O)=O)cn3)CC2)C[C@H]1c1ccc(Cl)cc1` [Example 180, [(3S,4R)-4-(4-Chloro-phenyl)-1-(5′-methanesulfonyl-3,4,5,6-tetrahydro-2H-[1,2′]bipyridinyl-4-carbonyl)-pyrrolidin-3-yl]-methyl-carbamic acid 4-fluoro-phenyl ester] has a Ki of 0.7 nM. Molecule `CN(C(=O)O[C@]1(C(F)(F)F)CC[C@@H](C)CC1)[C@@H]1CN(C(=O)C2CCN(c3ccc(C#N)cn3)CC2)C[C@H]1c1ccc(Cl)cc1` [Example 240, [(3S,4R)-4-(4-Chloro-phenyl)-1-(5′-cyano-3,4,5,6-tetrahydro-2H-[1,2′]bipyridinyl-4-carbonyl)-pyrrolidin-3-yl]-methyl-carbamic acid 4-methyl-1-trifluoromethyl-cyclohexyl ester] has a Ki of 22.8 nM. In the case of `CCC(C)OC(=O)N(C)[C@@H]1CN(C(=O)C2CCN(c3ccc(C#N)cn3)CC2)C[C@H]1c1ccc(Cl)cc1` (stereo partly drawn) [Example 157, [(3S,4R)-4-(4-Chloro-phenyl)-1-(5′-cyano-3,4,5,6-tetrahydro-2H-[1,2′]bipyridinyl-4-carbonyl)-pyrrolidin-3-yl]-methyl-carbamic acid sec-butyl ester], the Ki is reported as 27.1 nM. In the case of `CN(C(=O)Oc1ccc(F)cc1)[C@@H]1CN(C(=O)C2CCN(c3ccc(F)cn3)CC2)C[C@H]1c1ccc(Cl)cc1` [Example 195, [(3S,4R)-4-(4-Chloro-phenyl)-1-(5′-fluoro-3,4,5,6-tetrahydro-2H-[1,2′]bipyridinyl-4-carbonyl)-pyrrolidin-3-yl]-methyl-carbamic acid 4-fluoro-phenyl ester], the Ki is reported as 1.4 nM. Molecule `CN(C(=O)OCC1CCCO1)[C@@H]1CN(C(=O)C2CCN(c3ccc(C#N)cn3)CC2)C[C@H]1c1ccc(Cl)cc1` (stereo partly drawn) [Example 232, [(3S,4R)-4-(4-Chloro-phenyl)-1-(5′-cyano-3,4,5,6-tetrahydro-2H-[1,2′]bipyridinyl-4-carbonyl)-pyrrolidin-3-yl]-methyl-carbamic acid tetrahydro-furan-2-ylmethyl ester] has a Ki of 21.8 nM. In the case of `CN(C(=O)Oc1ccc(F)cc1)[C@H]1CN(C(=O)CCC(N)=O)C[C@@H]1c1ccc(Cl)c(Cl)c1` (racemic) [Example 55, rac-[(3R,4S)-1-(3-Carbamoyl-propionyl)-4-(3,4-dichloro-phenyl)-pyrrolidin-3-yl]-methyl-carbamic acid 4-fluoro-phenyl ester], the Ki is reported as 86.1 nM.

Same assay, conditions: hNK-3 receptor affinity; membranes from HEK293 cells transiently expressing recombinant human NK3 receptor; [3H]SR142801; Cheng-Prussoff; read-out: Data Ki
`CN(C(=O)OCCC1CC1)[C@@H]1CN(C(=O)C2CCN(c3ccc(C#N)cn3)CC2)C[C@H]1c1ccc(Cl)cc1` [Example 219, [(3S,4R)-4-(4-Chloro-phenyl)-1-(5′-cyano-3,4,5,6-tetrahydro-2H-[1,2′]bipyridinyl-4-carbonyl)-pyrrolidin-3-yl]-methyl-carbamic acid 2-cyclopropyl-ethyl ester] gave a Ki of 3.6 nM. Molecule `CN(C(=O)OC1CCC1)[C@@H]1CN(C(=O)C2CCN(c3ccc(C#N)cn3)CC2)C[C@H]1c1ccc(Cl)cc1` [Example 173, [(3S,4R)-4-(4-Chloro-phenyl)-1-(5′-cyano-3,4,5,6-tetrahydro-2H-[1,2′]bipyridinyl-4-carbonyl)-pyrrolidin-3-yl]-methyl-carbamic acid cyclobutyl ester] has a Ki of 47 nM. For `CN(C(=O)OCC1(C)CC1)[C@H]1CN(C(=O)C2CCN(C(=O)C3(C)CC3)CC2)C[C@@H]1c1ccc(Cl)c(Cl)c1` (racemic) [Example 91, rac-{(3R,4S)-4-(3,4-Dichloro-phenyl)-1-[1-(1-methyl-cyclopropanecarbonyl)-piperidine-4-carbonyl]-pyrrolidin-3-yl}-methyl-carbamic acid 1-methyl-cyclopropylmethyl ester], the Ki was 4.4 nM.

Biological target: T2, NK3 tachykinin receptor (Homo sapiens, UniProt P29371)
T2 sequence (P29371 1-465): T1 sequence (P29371 1-465)
Assay: not given
Settings: phase II trial; negative symptoms (depression, anhedonia, social isolation, memory and attention deficits); cited from earlier work
For `CC(=O)N(C)C1(c2ccccc2)CCN(CCC[C@]2(c3ccc(Cl)c(Cl)c3)CCCN(C(=O)c3ccccc3)C2)CC1` [SR 142,801, Osanetant], the “activity in the treatment of negative symptoms of schizophrenia” value is given as “inactive”.

Same assay, conditions: phase II trial; positive symptoms (altered behaviour, delusion, hallucinations, extreme emotions, excited motor activity, incoherent speech); cited from earlier work
For `CC(=O)N(C)C1(c2ccccc2)CCN(CCC[C@]2(c3ccc(Cl)c(Cl)c3)CCCN(C(=O)c3ccccc3)C2)CC1` [SR 142,801, Osanetant], the “activity on positive symptoms of schizophrenia” value is listed as “active”.
